Experimental findings from US5242908A, “Use of benzylphosphonic acid derivatives for the treatment of diseases caused by viruses” (priority 1990, dated 1993) are described below.

The test system of one data set is Herpes simplex 1. In kind it is in vivo, NMRI mice. The note with it: for Survivors: groups of 5 mice. As to the method: The treatment was performed twice daily, starting after the infection. The substances were administered to the experimental animals 5 or 9 times (see Table 1).
The chemotherapeutic action can be seen from Table 1.

A further data set in a line: in vitro. To be noted: hela and vero cells.
Where [1] appears, read: po 9 × 0 mg/kg (so in the source).

Read-outs that look alike come from different tables or passages of the source.

On to `COP(=O)(Cc1ccccc1C)OC` [A, dimethyl 2-methylbenzylphosphonate], for which the Average survival time in the data set on Herpes simplex 1 (po 5 × 2.5 mg/kg) is reported as 10.5 days; in the data set with Herpes simplex 1 (po 5 × 25 mg/kg), 9.0 days; in the data set with Herpes simplex 1 (sc 5 × 2.5 mg/kg), 12.0 days; in the data set on Herpes simplex 1 (sc 5 × 25 mg/kg), 9.0 days; in the data set on Herpes simplex 1 (sc 5 × 250 mg/kg), 9.0 days. The Survivors with Herpes simplex 1 (po 5 × 2.5 mg/kg) is recorded as 3; in the data set on Herpes simplex 1 (po 5 × 25 mg/kg) it was 3; in the data set with Herpes simplex 1 (sc 5 × 2.5 mg/kg) it was 2; in the data set on Herpes simplex 1 (sc 5 × 25 mg/kg), 4; with Herpes simplex 1 (sc 5 × 250 mg/kg) it was 4.

On to `CCOP(=O)(Cc1ccccc1Br)OCC` [C, diethyl 2-bromobenzylphosphonate], for which the results for the Average survival time with Herpes simplex 1 (po 5 × 2.5 mg/kg), in the data set on Herpes simplex 1 (po 5 × 25 mg/kg) and in the data set with Herpes simplex 1 (po 5 × 250 mg/kg) were 6.7 days, 8.5 days and 8.0 days, respectively. In addition, the values for the Survivors in the data set on Herpes simplex 1 (po 5 × 2.5 mg/kg), in the data set with Herpes simplex 1 (po 5 × 25 mg/kg) and with Herpes simplex 1 (po 5 × 250 mg/kg) were 2, 3 and 2, respectively.

On to `CCOP(=O)(Cc1ccc(Br)cc1)OCC` [D, diethyl 4-bromobenzylphosphonate], for which the Average survival time in the data set on Herpes simplex 1 (po 5 × 0.25 mg/kg) is 8.7 days; in the data set on Herpes simplex 1 (po 5 × 2.5 mg/kg) it was 7.0 days; in the data set with Herpes simplex 1 (po 5 × 25 mg/kg) it was 6.0 days; with Herpes simplex 1 (po 9 × 3 mg/kg), 8.0 days; with Herpes simplex 1 (po 9 × 10 mg/kg), 8.3 days; with Herpes simplex 1 (po 9 × 30 mg/kg) it was 10.5 days. Further, the Average survival time is 9.0 days with Herpes simplex 1 (sc 5 × 0.25 mg/kg), 8.5 days in the data set on Herpes simplex 1 (sc 5 × 2.5 mg/kg) and 8.0 days with Herpes simplex 1 (sc 5 × 25 mg/kg). The Survivors in the data set on Herpes simplex 1 (po 5 × 0.25 mg/kg) came to 2; with Herpes simplex 1 (po 5 × 2.5 mg/kg), 2; with Herpes simplex 1 (po 5 × 25 mg/kg), 3; with Herpes simplex 1 (po 9 × 3 mg/kg), 4; with Herpes simplex 1 (po 9 × 10 mg/kg), 2; in the data set on Herpes simplex 1 (po 9 × 30 mg/kg) it was 3. Moreover, the figures for the Survivors in the data set on Herpes simplex 1 (sc 5 × 0.25 mg/kg), with Herpes simplex 1 (sc 5 × 2.5 mg/kg) and with Herpes simplex 1 (sc 5 × 25 mg/kg) were 1, 3 and 4, respectively.

For `CCOP(=O)(Cc1ccccc1C)OCC` [E, diethyl 2-methylbenzylphosphonate], the Average survival time is reported as 7.0 days in the data set with Herpes simplex 1 (setting [1]); 5.7 days in the data set on Herpes simplex 1 (po 9 × 3 mg/kg); 7.5 days in the data set on Herpes simplex 1 (po 9 × 30 mg/kg); 6.3 days in the data set on Herpes simplex 1 (sc 9 × 3 mg/kg); 6.5 days in the data set on Herpes simplex 1 (sc 9 × 10 mg/kg); 6.7 days in the data set with Herpes simplex 1 (sc 9 × 30 mg/kg). Moreover, the Survivors in the data set on Herpes simplex 1 (setting [1]) was found to be 2; with Herpes simplex 1 (po 9 × 3 mg/kg) it was 1; in the data set on Herpes simplex 1 (po 9 × 30 mg/kg) it was 3; in the data set on Herpes simplex 1 (sc 9 × 3 mg/kg), 1; in the data set on Herpes simplex 1 (sc 9 × 10 mg/kg) it was 3; in the data set with Herpes simplex 1 (sc 9 × 30 mg/kg), 2.

`CCOP(=O)(Cc1cc(C)ccc1C)OCC` [K, diethyl 2,5-dimethylbenzylphosphonate]: the Average survival time is on record as 7.4 days in the data set with Herpes simplex 1 (sc 5 × 2.5 mg/kg), 8.6 days with Herpes simplex 1 (sc 5 × 25 mg/kg) and 8.0 days in the data set with Herpes simplex 1 (sc 5 × 250 mg/kg). Moreover, the Survivors in the data set with Herpes simplex 1 (sc 5 × 2.5 mg/kg) worked out at 0; with Herpes simplex 1 (sc 5 × 25 mg/kg), 0; in the data set with Herpes simplex 1 (sc 5 × 250 mg/kg) it was 3.

Regarding `Cc1ccccc1CP(=O)(OC(C)C)OC(C)C` [L, diisopropyl 2-methylbenzylphosphonate], the Survivors is 5 in the data set with Herpes simplex 1 (po 5 × 2.5 mg/kg); 2 in the data set with Herpes simplex 1 (po 5 × 25 mg/kg); 2 with Herpes simplex 1 (po 5 × 250 mg/kg); 1 in the data set with Herpes simplex 1 (sc 5 × 2.5 mg/kg); 0 with Herpes simplex 1 (sc 5 × 25 mg/kg); 3 in the data set on Herpes simplex 1 (sc 5 × 250 mg/kg). The Average survival time with Herpes simplex 1 (po 5 × 25 mg/kg) is 8.7 days; with Herpes simplex 1 (po 5 × 250 mg/kg) it was 8.7 days; in the data set on Herpes simplex 1 (sc 5 × 2.5 mg/kg), 8.3 days; in the data set with Herpes simplex 1 (sc 5 × 25 mg/kg) it was 7.4 days; in the data set with Herpes simplex 1 (sc 5 × 250 mg/kg) it was 6.5 days.

`CCCCOP(=O)(Cc1ccccc1C)OCCCC` [M, di-n-butyl 2-methylbenzylphosphonate]: the Average survival time stood at 7.0 days in the data set on Herpes simplex 1 (sc 5 × 2.5 mg/kg), 7.5 days with Herpes simplex 1 (sc 5 × 25 mg/kg) and 7.7 days in the data set on Herpes simplex 1 (sc 5 × 250 mg/kg). Besides, the Survivors with Herpes simplex 1 (sc 5 × 2.5 mg/kg) is recorded as 4; in the data set on Herpes simplex 1 (sc 5 × 25 mg/kg), 3; in the data set on Herpes simplex 1 (sc 5 × 250 mg/kg), 1.

The compound `Cc1ccccc1CP(=O)(O)O` [O, di-triethylammonium 2-methylbenzylphosphonate] gave an MNTC in the data set “in vitro” of 133 µg/mL.
